In patent US7759345B2, “Antitumoral derivatives of ET-743” (priority 2001, dated 2010):
Like-named read-outs stand apart in the source and are kept apart here.

Tests used:
LNCaP = test: Inhibition of cells growth by colorimetric assay (SRB), LNCaP; assay type: cell-based
Method in brief: (§1)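 48 h SRB cytotoxicity assay; compound range 10–10^−8 μg/ml; seeding 5×10^3 cells/well, 18 h pre-attachment; OD 490 nm; GI, TGI, LC from triplicate means ± SD.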

HMEC1 = test: Inhibition of cells growth by colorimetric assay (SRB), HMEC1; assay type: cell-based
Method in brief: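 Sulforhodamine B protein-stain readout (490 nm) after 48 h drug exposure, with GI, TGI and LC parameters calculated from triplicate means. Cells seeded at 5×10^3 per well, allowed 18 h drug-free attachment; dose range 10 to 10^−8 μg/ml, vehicle DMSO/EtOH/PBS (0.5:0.5:99).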

LoVo = test: Inhibition of cells growth by colorimetric assay (SRB), LoVo; assay type: cell-based
Method in brief: as §1

Skeletal [1] = test: In vitro toxicity, Skeletal
From the text: (§3) Toxicity was asssessed by the methods reported in Toxicology in Vitro, 15 (2001) 571-577, J. Luber Narod et al.: “Evaluation of the use of in vitro methodolodies as tools for screening new compounds for potential in vivo toxicity”.

DU-145 [2] = test: Inhibition of cells growth by colorimetric assay (SRB), DU-145; assay type: cell-based
Method in brief: as §1

IGROV-1 = test: Inhibition of cells growth by colorimetric assay (SRB), IGROV-1; assay type: cell-based
Method in brief: as §1

SK-BR-3 = test: Inhibition of cells growth by colorimetric assay (SRB), SK-BR-3; assay type: cell-based
Method in brief: as §1

HT-29 [3] = test: Inhibition of cells growth by colorimetric assay (SRB), HT-29; assay type: cell-based
Method in brief: as §1

Heart [4] = test: In vitro toxicity, Heart
From the text: as §3

A-549 [5] = test: Inhibition of cells growth by colorimetric assay (SRB), A-549; assay type: cell-based
Method in brief: as §1

Myelo [6] = test: In vitro toxicity, Myelo
From the text: as §3

PANC-1 = test: Inhibition of cells growth by colorimetric assay (SRB), PANC-1; assay type: cell-based
Method in brief: as §1

LoVo-Dox = test: Inhibition of cells growth by colorimetric assay (SRB), LoVo-Dox; assay type: cell-based
Method in brief: as §1

SK-OV-3 = test: Inhibition of cells growth by colorimetric assay (SRB), SK-OV-3; assay type: cell-based
Method in brief: as §1

K-562 = test: Inhibition of cells growth by colorimetric assay (SRB), K-562; assay type: cell-based
Method in brief: as §1

IGROV-ET = test: Inhibition of cells growth by colorimetric assay (SRB), IGROV-ET; assay type: cell-based
Method in brief: as §1

Kidney [7] = test: In vitro toxicity, Kidney
From the text: as §3

SK-MEL-28 = test: Inhibition of cells growth by colorimetric assay (SRB), SK-MEL-28; assay type: cell-based
Method in brief: as §1

Liver [8] = test: In vitro toxicity, Liver
From the text: as §3

tumor cell culture = test: Bioassays for antitumor screening, cell line not given; assay type: cell-based; details: cell line not stated
From the text: Bioassays for Antitumor Screening
The finality of these assays is to interrupt the growth of a “in vitro” tumor cell culture by means a continued exhibition of the cells to the sample to be testing.

Heart [9] = system: Heart
From the text: as §3

Kidney [10] = system: Kidney
From the text: as §3

Liver [11] = system: Liver
From the text: as §3

P-388 = test: Inhibition of cell growth by counting cells, P-388; assay type: cell-based, mouse; details: Mus musculus, P388, 72 h; three days of incubation; read-out: IC50 (molar) P-388
Method in brief: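 Mouse P-388 lymphoid neoplasm suspension cells seeded at 1×10^4 cells/well in EMEM 5% FCS containing graded sample concentrations, in duplicate alongside drug-free growth controls. Cells counted by Coulter counter; % growth vs untreated gives dose-response curves, IC50 = concentration producing 50% growth inhibition.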

Myelo [12] = system: Myelo
From the text: as §3

MEL-28 = test: Inhibition of cell growth by counting cells, MEL-28; assay type: cell-based, human; details: Homo sapiens, SK-MEL-28, 72 h; three days of incubation; read-out: IC50 (molar) MEL-28
Method in brief: (§2)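 Cells were seeded at 1×10^4 per well in EMEM with 5% FCS containing test sample and incubated 3 days at 37 °C, 5% CO2, in duplicate. Cells were then trypsinized and Coulter-counted, and growth was expressed relative to drug-free controls. IC50 (50% growth inhibition) was taken from dose-response curves.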

HT-29 [13] = test: Inhibition of cell growth by counting cells, HT-29; assay type: cell-based, human; details: Homo sapiens, HT-29, 72 h; three days of incubation; read-out: IC50 (molar) HT-29
Method in brief: as §2

Skeletal [14] = system: Skeletal
From the text: as §3

A-549 [15] = test: Inhibition of cell growth by counting cells, A-549; assay type: cell-based, human; details: Homo sapiens, A549, 72 h; three days of incubation; read-out: IC50 (molar) A-549
Method in brief: as §2

DU-145 [16] = test: Inhibition of cell growth by counting cells, DU-145; assay type: cell-based, human; details: Homo sapiens, DU-145, 72 h; three days of incubation; read-out: IC50 (molar) DU-145
Method in brief: as §2

COc1cc2c(cc1O)CCN[C@]21CS[C@@H]2c3c(OC(=O)C(F)(F)C(F)(F)C(F)(F)F)c(C)c4c(c3[C@H](COC1=O)N1C2[C@H]2c3c(cc(C)c(OC)c3O)C[C@@H]([C@@H]1O)N2C)OCO4 (stereo partly shown) [Compound 167]
GI50 (LNCaP; Homo sapiens, LNCaP, 48 h, read-out: LNCAP GI50, SRB assay, 48 hours exposure): 19.7 nM | CC50 (LNCaP; Homo sapiens, LNCaP, 48 h, read-out: LNCAP LC50, SRB assay, 48 hours exposure): 73.6 nM | LNCAP TGI (LNCaP; SRB assay, 48 hours exposure): 3.80E-08 | GI50 (HMEC1; Homo sapiens, HMEC-1, 48 h, read-out: HMEC-1 GI50): 51.5 nM | LC50 (HMEC1; Homo sapiens, HMEC-1, 48 h, read-out: HMEC-1 LC50, SRB assay, 48 hours exposure): 10900 nM | HMEC-1 TGI (HMEC1; SRB assay, 48 hours exposure): 3.49E-07 | GI50 (LoVo; Homo sapiens, LoVo, 48 h, read-out: LOVO GI50): 33.6 nM | LC50 (concentration for 50% cell killing) (LoVo; Homo sapiens, LoVo, 48 h, read-out: LOVO LC50, SRB assay, 48 hours exposure): 190 nM | LOVO TGI (LoVo; SRB assay, 48 hours exposure): 6.74E-08 | Toxicity Data Skeletal (Skeletal [1]): 1.09E-07 | GI50 (DU-145 [2]; Homo sapiens, DU-145, 48 h, read-out: DU-145 GI50): 48.8 nM | CC50 (DU-145 [2]; Homo sapiens, DU-145, 48 h, read-out: DU-145 LC50, SRB assay, 48 hours exposure): 10900 nM | DU-145 TGI (DU-145 [2]; SRB assay, 48 hours exposure): 1.01E-07 | GI50 (IGROV-1; Homo sapiens, IGROV-1, 48 h, read-out: IGROV GI50): 6.46 nM | CC50 (IGROV-1; Homo sapiens, IGROV-1, 48 h, read-out: IGROV LC50, SRB assay, 48 hours exposure): 89.2 nM | IGROV TGI (IGROV-1; SRB assay, 48 hours exposure): 2.49E-08 | GI50 (SK-BR-3; Homo sapiens, SK-BR-3, 48 h, read-out: SK-BR3 GI50): 17.6 nM | CC50 (SK-BR-3; Homo sapiens, SK-BR-3, 48 h, read-out: SK-BR3 LC50, SRB assay, 48 hours exposure): 238 nM | SK-BR3 TGI (SK-BR-3; SRB assay, 48 hours exposure): 5.19E-08 | GI50 (HT-29 [3]; Homo sapiens, HT-29, 48 h, read-out: HT-29 GI50): 28.9 nM | LC50 (concentration for 50% cell killing) (HT-29 [3]; Homo sapiens, HT-29, 48 h, read-out: HT-29 LC50, SRB assay, 48 hours exposure): 10900 nM | HT-29 TGI (HT-29 [3]; SRB assay, 48 hours exposure): 1.51E-07 | Toxicity Data Heart (Heart [4]): 4.28E-07 | GI50 (A-549 [5]; Homo sapiens, A549, 48 h, read-out: A-549 GI50): 28.3 nM | LC50 (concentration for 50% cell killing) (A-549 [5]; Homo sapiens, A549, 48 h, read-out: A-549 LC50, SRB assay, 48 hours exposure): 482 nM | A-549 TGI (A-549 [5]; SRB assay, 48 hours exposure): 6.54E-08 | Toxicity Data Myelo (Myelo [6]): 1.01E-06 | GI50 (PANC-1; Homo sapiens, PANC-1, 48 h, read-out: PANC-1 GI50): 46.5 nM | LC50 (concentration for 50% net cell kill) (PANC-1; Homo sapiens, PANC-1, 48 h, read-out: PANC-1 LC50, SRB assay, 48 hours exposure): 10900 nM | PANC-1 TGI (PANC-1; SRB assay, 48 hours exposure): 1.09E-07 | GI50 (LoVo-Dox; Homo sapiens, 48 h, read-out: LOVO-DOX GI50): 416 nM | CC50 (LoVo-Dox; Homo sapiens, 48 h, read-out: LOVO-DOX LC50, SRB assay, 48 hours exposure): 10900 nM | LOVO-DOX TGI (LoVo-Dox; SRB assay, 48 hours exposure): 1.58E-06 | GI50 (SK-OV-3; Homo sapiens, SK-OV-3, 48 h, read-out: SK-OV3 GI50): 40.2 nM | LC50 (SK-OV-3; Homo sapiens, SK-OV-3, 48 h, read-out: SK-OV3 LC50, SRB assay, 48 hours exposure): 10900 nM | SK-OV3 TGI (SK-OV-3; SRB assay, 48 hours exposure): 1.48E-07 | GI50 (K-562; Homo sapiens, K562, 48 h, read-out: K-562 GI50): 7 nM | LC50 (50% cell killing) (K-562; Homo sapiens, K562, 48 h, read-out: K-562 LC50, SRB assay, 48 hours exposure): 71.7 nM | K-562 TGI (K-562; SRB assay, 48 hours exposure): 9.64E-09 | GI50 (IGROV-ET; Homo sapiens, 48 h, read-out: IGROV-ET GI50): 77.6 nM | CC50 (IGROV-ET; Homo sapiens, 48 h, read-out: IGROV-ET LC50, SRB assay, 48 hours exposure): 5240 nM | IGROV-ET TGI (IGROV-ET; SRB assay, 48 hours exposure): 9.05E-07 | Toxicity Data Kidney (Kidney [7]): 2.77E-07 | GI50 (SK-MEL-28; Homo sapiens, SK-MEL-28, 48 h, read-out: MEL-28 GI50): 23.8 nM | CC50 (SK-MEL-28; Homo sapiens, SK-MEL-28, 48 h, read-out: MEL-28 LC50, SRB assay, 48 hours exposure): 107 nM | MEL-28 TGI (SK-MEL-28; SRB assay, 48 hours exposure): 5.06E-08 | Toxicity Data Liver (Liver [8]): 4.83E-07

CCCCCCCCCCCCCCCC(=O)Oc1c(C)c2c(c3c1[C@H]1SC[C@]4(NCCc5cc(O)c(OC)cc54)C(=O)OC[C@@H]3N3C1[C@H]1c4c(cc(C)c(OC)c4O)C[C@@H]([C@@H]3O)N1C)OCO2 (stereo partly shown) [Compound 170]
antitumor activity (in words) (tumor cell culture): active | Toxicity Data Heart (Heart [9]): non toxic | Toxicity Data Kidney (Kidney [10]): 3.01E-07 | Toxicity Data Liver (Liver [11]): 3.58E-07 | IC50 (P-388): 52.2 nM | Toxicity Data Myelo (Myelo [12]): non toxic | IC50 (MEL-28): 52.2 nM | IC50 (HT-29 [13]): 52.2 nM | Toxicity Data Skeletal (Skeletal [14]): 3.29E-07 | IC50 (A-549 [15]): 52.2 nM | IC50 (DU-145 [16]): 52.2 nM
